These results are taken from patent publication US12466838B2, “Crystalline form of a multi-tyrosine kinase inhibitor, method of preparation, and use thereof” (Mirati Therapeutics, Inc., priority 2019, dated 2025).

The test system of data set [1] is human xenograft tumor models. To be noted: multiple human xenograft tumor models in mice; cited from earlier work. (In general: A xenograft is tissue or cells of one species grown in another, often human tumour cells in immunodeficient mice.)
Data set [2] has as its system tyrosine kinases, including RET, CBL, CHR4q12, DDR and Trk. To be noted: cited from earlier work.
Data set [3] in a line: Drying experiments (non-solvent based), solid form by XRPD. It counts as physicochemical. Particulars: Vacuum oven drying, ~40° C., 2.5. As to the method:
(§1) XRPD patterns were collected with a PANalytical X'Pert PRO MPD diffractometer using an incident beam of Cu radiation produced using an Optix long, fine-focus source. An elliptically graded multilayer mirror was used to focus Cu Kα X-ray radiation through the specimen and onto the detector. Prior to the analysis, a silicon specimen (NIST SRM 640d) was analyzed to verify the observed position of the Si (111) peak is consistent with the NIST-certified position. A specimen of the sample was sandwiched between 3-μm-thick films and analyzed in transmission geometry. A beam-stop, short antiscatter extension, and antiscatter knife edge, were used to minimize the background generated by air. Soller slits for the incident and diffracted beams were used to minimize broadening from axial divergence. Diffraction patterns were collected using a scanning position-sensitive detector (X'Celerator) located 240 mm from the specimen and Data Collector software v. 2.2b.
Limited non-solvent based experiments were conducted with materials generated during the stable form screen and included short term vacuum drying at elevated temperature.

Data set [4] can be described thus: Preliminary physical stability assessment of Form D, XRPD. It counts as physicochemical. As to the method: as §1, with “2.2b. Preliminary physical stability assessment of Form D was performed. […] The XRPD patterns of the stressed materials show no significant peak shifts compared to the untreated samples. The XRPD pattern of Form D obtained from high water activity slurry is consistent with the pattern of the untreated material. However, small shifts of selected peaks were observed, possibly due to hydration.” for “2.2b.”

Data set [5] can be described thus: Slurry interconversion experiments, solid form by XRPD. It counts as physicochemical. To be noted: slurry of Forms C, D, and H in ethyl acetate. As to the method:
as §1
To investigate the relationship between selected materials produced during screening, limited slurry interconversion experiments were conducted. The experiments were performed by slurring seeds of solids of interest at ambient temperature in two different solvent systems. All materials were vacuum dried prior to the slurry (˜40° C., ˜2.5 hours). Solvent conditions were selected to achieve sufficient solubility of materials tested. […]

“Also recorded” adds a separate entry of the source.

For the molecule `COCCNCc1ccc(-c2cc3nccc(Oc4ccc(NC(=O)C5(C(=O)Nc6ccc(F)cc6)CC5)cc4F)c3s2)nc1` [Compound 1, N-(3-fluoro-4-((2-(5-(((2-methoxyethyl)amino)methyl)pyridin-2-yl)thieno[3,2-b]pyridin-7-yl)oxy)phenyl)-N-(4-fluorophenyl)cyclopropane-1,1-dicarboxamide], the tumor regression entry in data set [1] is recorded as “shows tumor regression”. In data set [2], the “inhibition of a closely related spectrum of tyrosine kinases” value is on record as “potent inhibition”.
`COCCNCc1ccc(-c2cc3nccc(Oc4ccc(NC(=O)C5(C(=O)Nc6ccc(F)cc6)CC5)cc4F)c3s2)nc1` [Form C, N-(3-fluoro-4-((2-(5-(((2-methoxyethyl)amino)methyl)pyridin-2-yl)thieno[3,2-b]pyridin-7-yl)oxy)phenyl)-N-(4-fluorophenyl)cyclopropane-1,1-dicarboxamide]: the “XRPD Results after drying” value in data set [3] is “Form C”.
With `COCCNCc1ccc(-c2cc3nccc(Oc4ccc(NC(=O)C5(C(=O)Nc6ccc(F)cc6)CC5)cc4F)c3s2)nc1` [Form D], the “XRPD Results after drying” value in data set [3] was “remained unchanged; also recorded: Form D”. The “XRPD Results (physical stability)” value in data set [4] (Acetone/water (40/60), slurry, RT) was “Consistent with Form D, slight peak shifts”; in data set [4] (EtOH/water (40/60), slurry, RT) it was “Consistent with Form D, slight peak shifts”; in data set [4] (Water, slurry, RT) it was “Consistent with Form D, slight peak shifts”; in data set [4] (~43% RH/RT), “remained unchanged; also recorded: Consistent with Form D, no significant shifts of peaks”; in data set [4] (~75% RH/RT) it was “remained unchanged; also recorded: Consistent with Form D, no significant shifts of peaks”.
In the case of `COCCNCc1ccc(-c2cc3nccc(Oc4ccc(NC(=O)C5(C(=O)Nc6ccc(F)cc6)CC5)cc4F)c3s2)nc1` [Form H, N-(3-fluoro-4-((2-(5-(((2-methoxyethyl)amino)methyl)pyridin-2-yl)thieno[3,2-b]pyridin-7-yl)oxy)phenyl)-N-(4-fluorophenyl)cyclopropane-1,1-dicarboxamide], in data set [5], the “relative thermodynamic stability among Forms C, D and H” value is listed as “least thermodynamically stable”. Moreover, the “XRPD Results after drying” value in data set [3] is given as “Form H”.
